In article PMC7794397, “Curbing gastrointestinal infections by defensin fragment modifications without harming commensal microbiota” (Communications Biology, 2021):
Where “and” joins values, the source holds several entries; their conditions need not be identical. Equal entries are not always repeated. Where two headings read alike, the source gives them in different places. Residues, ends and D or L forms follow the SMILES beside them. *: point of attachment. Palmitoyl = CCCCCCCCCCCCCCCC(=O)*; AEEA = NCCOCCOCC(=O)O

Key:
S. Typhimurium = experiment: Salmonella Typhimurium gastrointestinal infection in mice; format: in vivo, C57BL/6N mice; design: Body weight (% of initial): unit not given here
Experimental: For S. Typhimurium infections experiments, age- and sex-matched mice between 10 and 14 weeks of age were used. Both- female and male mice were used in experiments. […] Afterward, mice were supplied with water and food ad libitum. 20 h after streptomycin treatment, water and food were withdrawn again, 4 h before the mice were orally infected with 10^5 CFU of S. Typhimurium in 200 μl PBS. Drinking water ad libitum was supplied immediately and food 2 h post infection (p.i.). […] Mice were weighed every day to record potential body-weight loss. All mice were euthanized by asphyxiation with CO2 at indicated time points. Intestinal tissues (small intestine, cecum, colon) were removed aseptically. To collect intestinal content, organs were flushed with PBS. Organs were opened longitudinally, cleaned thoroughly with PBS and weighted. Organs and content were homogenized in PBS using a Polytron homogenizer ([…]).

[1] = tested on: multidrug resistant bacteria belonging to the ESKAPE pathogen panel; format: cell-based
Experimental: Bactericidal activity was assessed by broth microdilution assay. […] After incubation, 100 µl of 6% TSB (w/v) were added and absorbance was measured at 600 nm (Tecan, Switzerland) and monitored for 18 h. Afterward, 100 µl per well were plated on LB agar to determine the numbers of viable bacteria microbiologically. Bactericidal activity is expressed as the LC99.9, the lowest concentration that killed ≥99.9 % of bacteria.

[2] = tested on: B. subtilis ypuA promoter; experiment: ypuA promoter luciferase reporter strain (cell envelope stress); format: cell-based
Experimental: A specific bacterial reporter strain with the genetic background of Bacillus subitilis 1S34, carrying the promoter of the ypuA gene, fused to the firefly luciferase reporter gene, was used to identify cell envelope-related damage caused by treatment with antimicrobial compounds[31]. The assay was carried out in agreement with former reports describing this method[20],[59]. Bacteria were cultured to an OD600 of 0.9 in LB broth with 5 µg/ml erythromycin at 37 °C and diluted to an OD600 of 0.02. Serial peptide dilutions (0.15–150 µM) were prepared in a microtiter plate and incubated with the adjusted bacterial suspension at 37 °C for 1 h. Subsequently, citrate buffer (0.1 M, pH 5) containing 2 mM luciferin (Iris Biotech, Germany) was added and luminescence was measured using a microplate reader (Tecan, Switzerland).

S. aureus ATCC 25923 = format: cell-based; details: for Fold change in MIC: relative to MIC of first passage, Mean
Experimental: (§1) Development of resistance to the peptides was assessed with S. aureus and S. Typhimurium. […] Bacteria were cultured overnight at 37 °C at 150 rpm in TSB. Bacteria were washed twice with 10 mM sodium phosphate buffer containing 1% (w/v) TSB. […] After incubation, 100 µl of 6% TSB (w/v) was added and plates incubated in a humidified atmosphere for 21 h at 37 °C and 150 rpm.
(§2) The MIC, the lowest concentration of peptide/antibiotic that caused a lack of visible bacterial growth, was determined for each bacterial species. […] This was repeated for 25 passages.

S. Typhimurium DSM554 = details: for Fold change in MIC: relative to MIC of first passage, Mean
Experimental: as §1, §2

[3] = 250 µg orally 6 and 22 h p.i., 48 h after infection, individual animals, N = 12

## CCCCCCCCCCCCCCCC(=O)NCCOCCOCC(=O)N[C@@H](CCCNC(=N)N)C(=O)NCC(=O)N[C@@H](CCCCN)C(=O)N[C@@H](C)C(=O)N[C@@H](CCCCN)C(=O)N[C@@H](CS)C(=O)N[C@@H](CS)C(=O)N[C@@H](CCCCN)C(=O)O [Pam-3] ({Palmitoyl-AEEA}-RGKAKCCK-OH; C-terminus assumed)
S. Typhimurium; [3]
  S. Typhimurium in cecum content: 101000000 CFU/ml and 19300000 CFU/ml and 209000000 CFU/ml and 369000000 CFU/ml and 338000000 CFU/ml and 343000000 CFU/ml and 185000000 CFU/ml and 11700000 CFU/ml and 392000000 CFU/ml and 49300000 CFU/ml and 19200000 CFU/ml and 26400000 CFU/ml
  S. Typhimurium in cecum tissue: 22792020 CFU/ml and 690476 CFU/ml and 510638 CFU/ml and 1770972 CFU/ml and 4139241 CFU/ml and 2249657 CFU/ml and 543580 CFU/ml and 809249 CFU/ml and 1834320 CFU/ml and 538642 CFU/ml and 466793 CFU/ml and 451429 CFU/ml
  S. Typhimurium in small intestine content: 19170.1 CFU/ml and 3500 CFU/ml and 430000 CFU/ml and 36000 CFU/ml and 2200 CFU/ml and 10400 CFU/ml and 20600 CFU/ml and 69000 CFU/ml and 70112.2 CFU/ml and 111188 CFU/ml and 78651.7 CFU/ml and 1597222 CFU/ml
  S. Typhimurium in small intestine tissue: 6700.17 CFU/ml and 99601.6 CFU/ml and 75335.4 CFU/ml and 1784.12 CFU/ml and 22916.7 CFU/ml and 29579.1 CFU/ml and 9803.92 CFU/ml and 82191.8 CFU/ml and 12841.1 CFU/ml and 8221.99 CFU/ml and 14925.4 CFU/ml and 10101 CFU/ml
S. Typhimurium; Day 0 of S. Typhimurium infection, individual animals, N = 12
  Body weight (% of initial): 100
S. Typhimurium; Day 1 of S. Typhimurium infection, 250 µg orally 6 and 22 h p.i., individual animals, N = 12
  Body weight (% of initial): 94.8627 and 88.6861 and 93.3869 and 93.4108 and 92.7247 and 90.6285 and 93.2755 and 91.8377 and 90.7373 and 93.6733 and 93.6223 and 95.0622
S. Typhimurium; Day 2 of S. Typhimurium infection, 250 µg orally 6 and 22 h p.i., individual animals, N = 12
  Body weight (% of initial): 94.2562 and 87.7476 and 94.3788 and 93.5562 and 89.4912 and 89.5623 and 93.1887 and 92.315 and 87.1434 and 90.8742 and 93.7891 and 93.0505
S. Typhimurium; Fig. 6d
  weight loss during infection (in words): tends to reduce weight loss
S. Typhimurium; Mann–Whitney p < 0.0001 and p = 0.0409
  CFU of S. Typhimurium in cecum content and tissue vs PBS (in words): significantly reduced
S. Typhimurium; Mann–Whitney p = 0.0024
  bacterial load in small intestine content vs PBS (in words): lowered the bacterial load
S. Typhimurium; Mann–Whitney p = 0.8621
  bacterial load in small intestine tissue vs PBS (in words): without affecting
[1]; 18 different bacteria, three experiments each
  effective concentrations (LC99.9) across the panel: 4.69 to 18.75 µM
[1]; 18 different bacteria, three experiments each, peer review file
  overall measured mean effective concentration: 9.38 µM
[1]; broth microdilution, ESKAPE panel
  bactericidal activity (in words): highly effective
[2]
  activation of the ypuA promoter: 2 fold
[2]; 0.031x MIC Pam-3, 1 h, experiment 1
  ypuA promoter activation (relative to untreated = 1): 1.05
[2]; 0.031x MIC Pam-3, 1 h, experiment 2
  ypuA promoter activation (relative to untreated = 1): 1.15
[2]; 0.031x MIC Pam-3, 1 h, experiment 3
  ypuA promoter activation (relative to untreated = 1): 1.17
[2]; 0.062x MIC Pam-3, 1 h, experiment 1
  ypuA promoter activation (relative to untreated = 1): 1.16
[2]; 0.062x MIC Pam-3, 1 h, experiment 2
  ypuA promoter activation (relative to untreated = 1): 1.27
[2]; 0.062x MIC Pam-3, 1 h, experiment 3
  ypuA promoter activation (relative to untreated = 1): 1.36
[2]; 0.125x MIC Pam-3, 1 h, experiment 1
  ypuA promoter activation (relative to untreated = 1): 1.38
[2]; 0.125x MIC Pam-3, 1 h, experiment 2
  ypuA promoter activation (relative to untreated = 1): 1.48
[2]; 0.125x MIC Pam-3, 1 h, experiment 3
  ypuA promoter activation (relative to untreated = 1): 1.76
[2]; 0.25x MIC Pam-3, 1 h, experiment 1
  ypuA promoter activation (relative to untreated = 1): 2.12
[2]; 0.25x MIC Pam-3, 1 h, experiment 2
  ypuA promoter activation (relative to untreated = 1): 2
[2]; 0.25x MIC Pam-3, 1 h, experiment 3
  ypuA promoter activation (relative to untreated = 1): 2.57
[2]; 0.5x MIC Pam-3, 1 h, experiment 1
  ypuA promoter activation (relative to untreated = 1): 0.23
[2]; 0.5x MIC Pam-3, 1 h, experiment 2
  ypuA promoter activation (relative to untreated = 1): 0.18
[2]; 0.5x MIC Pam-3, 1 h, experiment 3
  ypuA promoter activation (relative to untreated = 1): 0.26
[2]; 1x MIC Pam-3, 1 h, experiment 1
  ypuA promoter activation (relative to untreated = 1): 0
[2]; 1x MIC Pam-3, 1 h, experiment 2
  ypuA promoter activation (relative to untreated = 1): 0
[2]; 1x MIC Pam-3, 1 h, experiment 3
  ypuA promoter activation (relative to untreated = 1): 0.02
[2]; 2x MIC Pam-3, 1 h, experiment 1
  ypuA promoter activation (relative to untreated = 1): 0
[2]; 2x MIC Pam-3, 1 h, experiment 2
  ypuA promoter activation (relative to untreated = 1): 0
[2]; 2x MIC Pam-3, 1 h, experiment 3
  ypuA promoter activation (relative to untreated = 1): 0
S. aureus ATCC 25923; Day (passage) 0
  Fold change in MIC: 1.0
S. aureus ATCC 25923; Day (passage) 1
  Fold change in MIC: 0.7
S. aureus ATCC 25923; Day (passage) 2
  Fold change in MIC: 1.0
S. aureus ATCC 25923; Day (passage) 3
  Fold change in MIC: 1.0
S. aureus ATCC 25923; Day (passage) 4
  Fold change in MIC: 1.3
S. aureus ATCC 25923; Day (passage) 5
  Fold change in MIC: 1.2
S. aureus ATCC 25923; Day (passage) 6
  Fold change in MIC: 0.8
S. aureus ATCC 25923; Day (passage) 7
  Fold change in MIC: 0.7
S. aureus ATCC 25923; Day (passage) 8
  Fold change in MIC: 0.8
S. aureus ATCC 25923; Day (passage) 9
  Fold change in MIC: 1.0
S. aureus ATCC 25923; Day (passage) 10
  Fold change in MIC: 1.3
S. aureus ATCC 25923; Day (passage) 11
  Fold change in MIC: 1.3
S. aureus ATCC 25923; Day (passage) 12
  Fold change in MIC: 1.2
S. aureus ATCC 25923; Day (passage) 13
  Fold change in MIC: 1.2
S. aureus ATCC 25923; Day (passage) 14
  Fold change in MIC: 1.3
S. aureus ATCC 25923; Day (passage) 15
  Fold change in MIC: 1.2
S. aureus ATCC 25923; Day (passage) 16
  Fold change in MIC: 0.7
S. aureus ATCC 25923; Day (passage) 17
  Fold change in MIC: 1.3
S. aureus ATCC 25923; Day (passage) 18
  Fold change in MIC: 0.7
S. aureus ATCC 25923; Day (passage) 19
  Fold change in MIC: 1.8
S. aureus ATCC 25923; Day (passage) 20
  Fold change in MIC: 1.2
S. aureus ATCC 25923; Day (passage) 21
  Fold change in MIC: 1.0
S. aureus ATCC 25923; Day (passage) 22
  Fold change in MIC: 1.3
S. aureus ATCC 25923; Day (passage) 23
  Fold change in MIC: 1.2
S. aureus ATCC 25923; Day (passage) 24
  Fold change in MIC: 1.3
S. aureus ATCC 25923; Day (passage) 25
  Fold change in MIC: 1.2
S. aureus ATCC 25923; sub-inhibitory concentrations for 25 passages
  increase in MIC (in words): no significant increase
S. Typhimurium DSM554; Day (passage) 0
  Fold change in MIC: 1.0
S. Typhimurium DSM554; Day (passage) 1
  Fold change in MIC: 0.7
S. Typhimurium DSM554; Day (passage) 2
  Fold change in MIC: 0.5
S. Typhimurium DSM554; Day (passage) 3
  Fold change in MIC: 0.7
S. Typhimurium DSM554; Day (passage) 4
  Fold change in MIC: 0.7
S. Typhimurium DSM554; Day (passage) 5
  Fold change in MIC: 0.7
S. Typhimurium DSM554; Day (passage) 6
  Fold change in MIC: 0.7
S. Typhimurium DSM554; Day (passage) 7
  Fold change in MIC: 0.8
S. Typhimurium DSM554; Day (passage) 8
  Fold change in MIC: 0.7
S. Typhimurium DSM554; Day (passage) 9
  Fold change in MIC: 0.7
S. Typhimurium DSM554; Day (passage) 10
  Fold change in MIC: 1.3
S. Typhimurium DSM554; Day (passage) 11
  Fold change in MIC: 1.2
S. Typhimurium DSM554; Day (passage) 12
  Fold change in MIC: 0.7
S. Typhimurium DSM554; Day (passage) 13
  Fold change in MIC: 0.8
S. Typhimurium DSM554; Day (passage) 14
  Fold change in MIC: 0.7
S. Typhimurium DSM554; Day (passage) 15
  Fold change in MIC: 0.375
S. Typhimurium DSM554; Day (passage) 16
  Fold change in MIC: 0.7
S. Typhimurium DSM554; Day (passage) 17
  Fold change in MIC: 1.0
S. Typhimurium DSM554; Day (passage) 18
  Fold change in MIC: 0.8
S. Typhimurium DSM554; Day (passage) 19
  Fold change in MIC: 0.7
S. Typhimurium DSM554; Day (passage) 20
  Fold change in MIC: 0.5
S. Typhimurium DSM554; Day (passage) 21
  Fold change in MIC: 0.7
S. Typhimurium DSM554; Day (passage) 22
  Fold change in MIC: 1.0
S. Typhimurium DSM554; Day (passage) 23
  Fold change in MIC: 0.5
S. Typhimurium DSM554; Day (passage) 24
  Fold change in MIC: 0.5
S. Typhimurium DSM554; Day (passage) 25
  Fold change in MIC: 0.5
S. Typhimurium DSM554; continuous serial passages
  emergence of resistant isolates (in words): no resistant S. Typhimurium isolates emerged
